Results on eight compounds are retold here after patent US8829026B2, “Sulfamoyl benzoic acid heterobicyclic derivatives as TRPM8 antagonists” (RaQualia Pharma Inc., priority 2010, dated 2014).

The target in the assay is T1, human TRPM8 (Homo sapiens, UniProt Q7Z2W7).
T1 construct: expressed in transfected cells
Put plainly: Menthol-induced Ca2+ influx in HEK293 cells stably expressing human TRPM8. It is filed as cell-based. Particulars: 30 microM menthol-induced Ca2+ influx, HEK293 cells stably expressing human TRPM8, 11-point dose-response. The method, then:
Measurement of the Menthol-Induced Ca^2+ Influx in HEK293 Cells Stably Expressing Human TRPM8
A cell-based Ca^2+ influx assay using HEK293 cells stably expressing human TRPM8 was used to identify the activity of compounds.
HEK293 cells stably expressing human TRPM8 were grown in T175 flasks at 37° C. in a 5% CO2 humidified incubator to about 80% confluence. Media composition consisted of Dulbecco's Modified Eagle Medium (high glucose), 10% fetal calf serum (FCS), 100 units/ml Penicillin, 100 microg/ml Streptomycin and 600 microg/ml Geneticine. At 24 hours prior to assay, cells were seeded in poly-D-lysine coated 384-well plates (BD FALCON) at a density of 30,000 cells per well in culture medium and grown overnight in 5% CO2 at 37° C. On the assay day, growth media was removed and cells were loaded with 0.5 microM Fluo4-AM (Molecular Probes) and 0.005% Pluronic F-127 dissolved in assay buffer (Hank's balanced salt solution (HBSS), 19.4 mM HEPES pH7.4, 2.5 mM Probenecid) for 1 hour at room temperature. After washing with assay buffer, the cells were preincubated with various concentrations of the compounds for 5 min. The changes in intracellular calcium concentration by addition of 30 microM menthol were monitored by the cell imaging technology by Hamamatsu Photonics's Functional Drug Screening System (FDSS).
The IC50 values for compounds of the present invention were determined from 11-point dose-response studies. Curves were generated using the average of duplicate wells for each data point. Finally, the IC50 values are calculated with the best-fit dose curve determined by XLfit (ID Business Solutions Ltd.).

T1 sequence (Q7Z2W7 whole entry): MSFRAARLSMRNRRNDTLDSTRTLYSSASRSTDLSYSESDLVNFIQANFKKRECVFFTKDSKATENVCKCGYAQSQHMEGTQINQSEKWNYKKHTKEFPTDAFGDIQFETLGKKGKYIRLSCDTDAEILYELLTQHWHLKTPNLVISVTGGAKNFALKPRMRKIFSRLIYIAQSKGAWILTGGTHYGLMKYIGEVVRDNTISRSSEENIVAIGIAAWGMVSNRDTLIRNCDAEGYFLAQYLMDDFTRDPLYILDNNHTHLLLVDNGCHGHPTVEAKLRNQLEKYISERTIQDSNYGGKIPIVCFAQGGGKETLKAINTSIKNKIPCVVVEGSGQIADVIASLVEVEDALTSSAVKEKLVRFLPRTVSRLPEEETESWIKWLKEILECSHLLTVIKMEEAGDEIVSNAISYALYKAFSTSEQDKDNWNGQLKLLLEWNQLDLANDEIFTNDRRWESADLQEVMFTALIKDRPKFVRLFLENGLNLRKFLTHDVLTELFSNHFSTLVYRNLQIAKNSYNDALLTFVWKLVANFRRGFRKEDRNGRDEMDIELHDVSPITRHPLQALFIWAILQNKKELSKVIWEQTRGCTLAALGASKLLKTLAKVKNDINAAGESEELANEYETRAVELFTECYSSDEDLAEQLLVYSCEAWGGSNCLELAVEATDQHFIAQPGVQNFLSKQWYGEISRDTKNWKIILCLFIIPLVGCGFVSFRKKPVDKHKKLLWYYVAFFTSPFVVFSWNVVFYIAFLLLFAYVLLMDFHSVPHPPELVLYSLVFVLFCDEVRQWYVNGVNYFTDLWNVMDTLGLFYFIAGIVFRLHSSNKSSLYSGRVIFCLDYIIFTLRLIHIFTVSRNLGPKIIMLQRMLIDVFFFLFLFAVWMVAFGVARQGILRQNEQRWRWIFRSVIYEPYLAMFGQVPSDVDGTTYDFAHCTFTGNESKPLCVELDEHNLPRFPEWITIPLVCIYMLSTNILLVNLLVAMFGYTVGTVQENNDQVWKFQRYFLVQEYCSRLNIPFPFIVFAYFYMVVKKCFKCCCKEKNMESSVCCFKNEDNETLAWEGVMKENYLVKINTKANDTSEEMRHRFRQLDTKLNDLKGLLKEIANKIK

For orientation: IC50 means the midpoint of a concentration-inhibition curve. Higher therefore signals weaker potency in that assay. Take `O=C(O)c1ccc(S(=O)(=O)N(Cc2ccc3c(cnn3C3CC3)c2)c2ncc(Cl)cc2Cl)c(Cl)c1` [Example 32, 3-Chloro-4-(N-((1-cyclopropyl-1H-indazol-5-yl)methyl)-N-(3,5-dichloropyridin-2-yl)sulfamoyl)benzoic acid]: the half-inhibitory concentration (IC50) was < 1 µM.
Consider `Cc1cc(C(=O)O)ccc1S(=O)(=O)N(Cc1ccc2c(cnn2C2CC2)c1)c1ncc(C(F)(F)F)cc1Cl` [Example 33, 4-(N-(3-Chloro-5-(trifluoromethyl)pyridin-2-yl)-N-((1-cyclopropyl-1H-indazol-5-yl)methyl)sulfamoyl)-3-methylbenzoic acid], for which the IC50 was < 1 µM.
As to `Cc1cc(C(=O)O)ccc1S(=O)(=O)N(Cc1ccc2c(cnn2C2CC2)c1)c1ncc(Cl)cc1Cl` [Example 34, 4-(N-((1-Cyclopropyl-1H-indazol-5-yl)methyl)-N-(3,5-dichloropyridin-2-yl)sulfamoyl)-3-methylbenzoic acid], the half-maximal inhibitory concentration (IC50) was < 1 µM.
With `Cn1ccc2cc(CN(c3ncc(C(F)(F)F)cc3Cl)S(=O)(=O)c3ccc(C(=O)O)cc3Cl)cnc21` [Example 35, 3-Chloro-4-(N-(3-chloro-5-(trifluoromethyl)pyridin-2-yl)-N-((1-methyl-1H-pyrrolo[2,3-b]pyridin-5-yl)methyl)sulfamoyl)benzoic acid], the IC50 is < 1 µM.
Compound `Cn1ccc2cc(CN(c3ncc(Cl)cc3Cl)S(=O)(=O)c3ccc(C(=O)O)cc3Cl)cnc21` [Example 36, 3-Chloro-4-(N-(3,5-dichloropyridin-2-yl)-N-((1-methyl-1H-pyrrolo[2,3-b]pyridin-5-yl)methyl)sulfamoyl)benzoic acid] registered an IC50 of 1 to 10 µM.
With `Cn1ccc2cc(CN(c3ncc(C(F)(F)F)cc3Cl)S(=O)(=O)c3ccc(C(=O)O)cc3)cnc21` [Example 37, 4-(N-(3-Chloro-5-(trifluoromethyl)pyridin-2-yl)-N-((1-methyl-1H-pyrrolo[2,3-b]pyridin-5-yl)methyl)sulfamoyl)benzoic acid], the IC50 is < 1 µM.
Regarding `O=C(O)c1ccc(S(=O)(=O)N(Cc2cnc3ccccc3c2)c2ncc(C(F)(F)F)cc2Cl)cc1` [Example 38, 4-(N-(3-Chloro-5-(trifluoromethyl)pyridin-2-yl)-N-(quinolin-3-ylmethyl)sulfamoyl)benzoic acid], the half-maximal inhibitory concentration (IC50) is < 1 µM.
Under `O=C(O)c1ccc(S(=O)(=O)N(Cc2ccc3ncccc3c2)c2ncc(C(F)(F)F)cc2Cl)cc1` [Example 39, 4-(N-(3-Chloro-5-(trifluoromethyl)pyridin-2-yl)-N-(quinolin-6-ylmethyl)sulfamoyl)benzoic acid] stands < 1 µM.
